IC50 data for five compounds are collected here from patent US6916837B2, “Amidino derivatives and anticoagulants and thrombosis therapeutic agents containing them” (Eisai Co., Ltd., priority 2001, dated 2005).

Counter-ions that a name gives are not always drawn.

T1 sequence (P08709 213-466 limits assumed): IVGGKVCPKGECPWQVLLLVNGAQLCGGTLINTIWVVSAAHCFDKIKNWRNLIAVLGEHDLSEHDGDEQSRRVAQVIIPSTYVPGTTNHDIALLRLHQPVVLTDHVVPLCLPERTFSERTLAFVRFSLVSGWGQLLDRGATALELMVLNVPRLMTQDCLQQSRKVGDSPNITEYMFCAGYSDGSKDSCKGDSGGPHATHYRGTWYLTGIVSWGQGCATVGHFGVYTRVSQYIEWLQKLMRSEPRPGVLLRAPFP
T1 sequence (P08709 61-212 limits assumed): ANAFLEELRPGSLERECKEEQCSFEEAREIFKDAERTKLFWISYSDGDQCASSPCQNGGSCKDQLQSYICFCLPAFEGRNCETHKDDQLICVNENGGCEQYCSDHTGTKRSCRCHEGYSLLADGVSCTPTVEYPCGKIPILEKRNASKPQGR
T1 sequence (P13726 33-295 partner): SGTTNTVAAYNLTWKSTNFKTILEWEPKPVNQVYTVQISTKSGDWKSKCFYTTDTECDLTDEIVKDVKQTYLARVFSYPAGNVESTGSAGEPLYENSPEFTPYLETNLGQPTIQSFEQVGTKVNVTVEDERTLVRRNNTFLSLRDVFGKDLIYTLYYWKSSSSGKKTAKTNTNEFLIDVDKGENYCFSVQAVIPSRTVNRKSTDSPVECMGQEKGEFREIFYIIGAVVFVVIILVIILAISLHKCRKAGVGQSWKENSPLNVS

This assay has as its target T1, human blood clotting factor VIIa (Homo sapiens, UniProt P08709).
T1 construct: 5 nM human blood clotting factor VIIa
In words: Inhibiting activity against blood clotting factor VIIa (Spectrozyme VII chromogenic assay). It is filed as biochemical. To be noted: 10 nM human tissue factor, 5 nM human blood clotting factor VIIa, Spectrozyme VII substrate, 40 minutes at room temperature, absorbance 405 nm. The protocol:
Pharmacological Activity Test (Inhibiting Activity Against Blood Clotting Factor VIIa)
Compounds of the present invention (Examples 1-4, 1-26, 1-39, 1-40 and 8-3) were each dissolved in dimethyl sulfoxide to 5 mg/ml, and then each solution was diluted 50-fold with reaction buffer to prepare a 100 μg/ml solution (2% dimethyl sulfoxide solution) Also, a 10-fold dilution series with reaction buffer was prepared with the compound solutions from 100 μg/ml to 1 ng/ml. Separately, dimethyl sulfoxide alone was diluted 50-fold with reaction buffer to prepare a 2% dimethyl sulfoxide solution as a control. The composition of the reaction buffer was 50 mM Tris-acetate (pH 7.5), 15 mM calcium chloride (CaCl2), 0.15 M sodium chloride (NaCl) and 6 mg/ml Cephalin. There were also added to the buffer 10 nM human tissue factor (TF) and 5 nM human blood clotting factor VIIa, to prepare enzyme solutions. After separating off 65 μl of each solution, a 10 μl portion of the 2% dimethyl sulfoxide solution of each compound of the invention was added and preincubation was performed at room temperature. As a substrate there was added 25 μl of 1.0 mM Spectrozyme VII, and reaction was conducted for 40 minutes at room temperature. The enzyme reaction rate was quantified by the change ion absorbance of released 4-nitroanilide at 405 nm.
For measurement of the inhibiting activity against human blood clotting factor VIIa, the enzyme reaction rate was determined in the presence of the above-mentioned compounds of the present invention from 10 μg/ml to 0.1 ng/ml. The IC50 values were calculated based on nonlinear regression analysis, as an index of the inhibiting activity against human blood clotting factor VIIa.
As usually defined, the IC50 is the concentration at which inhibition is half-maximal. Low values mean inhibition by little substance, high ones a need for much substance. In the case of `N=C(N)c1ccc2cc(Oc3ccc(NS(=O)(=O)c4ccc5ccccc5c4)cc3C(=O)O)ccc2c1` [Example 1-4, 2-(6-amidino-2-naphthyloxy)-5-(2-naphthalenesulfonyl)aminobenzoic acid trifluoroacetate], the IC50 came out at 1430 nM.
With `COc1ccc(S(=O)(=O)Nc2ccc(Oc3ccc4cc(C(=N)N)ccc4c3)c(-c3ccccc3C(=O)O)c2)cc1` [Example 1-26, 2′-(6-amidino-2-naphthyloxy)-5′-(4-methoxybenzenesulfonyl)amino-1,1′-biphenyl-2-carboxylic acid trifluoroacetate] the figure was 210 nM.
As for `CC(=O)N1CCc2ccc(S(=O)(=O)Nc3ccc(Oc4ccc5cc(C(=N)N)ccc5c4)c(-c4ccccc4C(=O)O)c3)cc2C1` [Example 1-39, 2′-(6-amidino-2-naphthyloxy)-5′-[1,2,3,4-tetrafluoro-2-(acetyl)isoquinoline-7-sulfonyl)amino-1,1′-biphenyl-2-carboxylic acid trifluoroacetate], the figure is 30 nM; as for `Cc1ccc(S(=O)(=O)Nc2ccc(Oc3ccc4cc(C(=N)N)ccc4c3)c(-c3ccccc3C(=O)O)c2)cc1Cl` [Example 1-40, 2′-(6-amidino-2-naphthyloxy)-5′-(3-chloro-4-methylbenzenesulfonyl)amino-1,1′-biphenyl-2-carboxylic acid trifluoroacetate], 40 nM.
As for `Cc1ccc(S(=O)(=O)Nc2ccc(Oc3ccc4cc(C(=N)N)ccc4c3)c(-c3ccc(C(=O)NCC(C)C)cc3C(=O)O)c2)cc1Cl` [Example 8-3, 2′-(6-amidino-2-naphthyloxy)-4-(2-methylpropylcarbamoyl)-5′-(3-chloro-4-methylbenzenesulfonyl)amino-1,1′-biphenyl-2-carboxylic acid trifluoroacetate], the figure is 4 nM.
